The subject of this assay is BDF1 mice, Adenocarcinoma 755 s.c., tumor weight T/C. The experiment in a line: NCI In Vivo Anticancer Drug Screen. Data for tumor model Adenocarcinoma 755 (subcutaneous) in B6D2F1 (BDF1) mice. The note with it: endpoint: mean tumor weight, higher = larger tumour. The method in brief:
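Tumor-bearing mice receive test compound while controls get vehicle alone. Antitumor effect is scored from survival or tumor dimensions as a T/C quotient.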

Setting [1] is: dose: 12.5 mg/kg/injection, schedule: Q01DX011 (ip), vehicle: methylcellulose (MC).
Setting [2] is: dose: 25.0 mg/kg/injection, schedule: Q01DX011 (ip), vehicle: methylcellulose (MC).
[3] abbreviates: dose: 50.0 mg/kg/injection, schedule: Q01DX011 (ip), vehicle: methylcellulose (MC).
[4] abbreviates: dose: 30.0 mg/kg/injection, schedule: Q01DX011 (ip), vehicle: carboxymethylcellulose (CMC).
The mark [5] stands for this setting: dose: 6.2 mg/kg/injection, schedule: Q01DX011 (ip), vehicle: methylcellulose (MC).
Setting [6] is: dose: 2.0 mg/kg/injection, schedule: Q01DX011 (ip), vehicle: methylcellulose (MC).

Molecules are shown by their SMILES. Values joined by “and” are separate entries in the source; they are usually repeats but may differ in a detail not shown here. Identical values can stand only once.

In the case of `CCOCCNc1ncnc2c1cnn2C`, the T/C is, setting by setting: under setting [1], 112 % of control; under setting [2], 65 % of control; under setting [3], 38 % of control; (dose: 100.0 mg/kg/injection, schedule: Q01DX011 (ip), vehicle: methylcellulose (MC)) 17 % of control.

Take `CCSc1ncnc2c1ncn2C1OC(CO)C(O)C1O` (centres undefined): the T/C is 96 % of control (dose: 6.25 mg/kg/injection, schedule: Q01DX011 (ip), vehicle: saline); 53 % of control under setting [1]; 49 % of control (dose: 12.5 mg/kg/injection, schedule: Q01DX011 (ip), vehicle: saline); 27 % of control under setting [2]; 14 % of control (dose: 25.0 mg/kg/injection, schedule: Q01DX011 (ip), vehicle: saline); 10 % of control under setting [3]. Further, the T/C (dose: 50.0 mg/kg/injection, schedule: Q01DX011 (ip), vehicle: saline) is 4 % of control.

With `CCCCOP(=S)(N1CC1)N1CC1`, the T/C reads like this: (dose: 0.19 mg/kg/injection, schedule: Q01DX011 (ip), vehicle: other) 44 % of control; (dose: 0.19 mg/kg/injection, schedule: Q01DX011 (ip), vehicle: saline) 102 % of control; (dose: 0.37 mg/kg/injection, schedule: Q01DX011 (ip), vehicle: other) 38 % of control; (dose: 0.37 mg/kg/injection, schedule: Q01DX011 (ip), vehicle: saline) 97 % of control; (dose: 0.75 mg/kg/injection, schedule: Q01DX011 (ip), vehicle: carboxymethylcellulose (CMC)) 73 % of control; (dose: 0.75 mg/kg/injection, schedule: Q01DX011 (ip), vehicle: other) 26 % of control. The T/C is 113 % of control (dose: 0.75 mg/kg/injection, schedule: Q01DX011 (ip), vehicle: saline); 78 % of control (dose: 1.5 mg/kg/injection, schedule: Q01DX011 (ip), vehicle: carboxymethylcellulose (CMC)); 14 % of control (dose: 1.5 mg/kg/injection, schedule: Q01DX011 (ip), vehicle: other); 90 % of control (dose: 1.5 mg/kg/injection, schedule: Q01DX011 (ip), vehicle: saline); 23 % of control (dose: 3.0 mg/kg/injection, schedule: Q01DX011 (ip), vehicle: carboxymethylcellulose (CMC)); 7 % of control (dose: 3.0 mg/kg/injection, schedule: Q01DX011 (ip), vehicle: other). The T/C (dose: 3.0 mg/kg/injection, schedule: Q01DX011 (ip), vehicle: saline) is 42 % of control; the T/C (dose: 3.0 mg/kg/injection, schedule: Q## X000 (ip), vehicle: saline) was 460 % of control; the T/C (dose: 6.0 mg/kg/injection, schedule: Q## X000 (ip), vehicle: saline) is 153 % of control; the T/C (dose: 12.0 mg/kg/injection, schedule: Q## X000 (ip), vehicle: saline) is 23 % of control.

As to `Cn1c(=N)nc(SCc2ccccc2Cl)c2[nH]cnc21`, the T/C under setting [4] is 88 % of control; the T/C (dose: 60.0 mg/kg/injection, schedule: Q01DX011 (ip), vehicle: carboxymethylcellulose (CMC)) is 118 % of control; the T/C (dose: 120.0 mg/kg/injection, schedule: Q01DX011 (ip), vehicle: carboxymethylcellulose (CMC)) is 88 % of control; the T/C (dose: 240.0 mg/kg/injection, schedule: Q01DX011 (ip), vehicle: carboxymethylcellulose (CMC)) is 16 % of control.

Take `CCNS(=O)(=O)c1ncnc2nc[nH]c12`: the T/C was 94 % of control (dose: 6.0 mg/kg/injection, schedule: Q01DX011 (ip), vehicle: other); 66 % of control under setting [5]; 32 % of control (dose: 12.0 mg/kg/injection, schedule: Q01DX011 (ip), vehicle: other); 36 % of control under setting [1]; 7 % of control and 10 % of control under setting [2]; 15 % of control (dose: 25.0 mg/kg/injection, schedule: Q01DX011 (ip), vehicle: other). Moreover, the T/C is 5 % of control (dose: 50.0 mg/kg/injection, schedule: Q01DX011 (ip), vehicle: other); 10 % of control (dose: 100.0 mg/kg/injection, schedule: Q01DX011 (ip), vehicle: other); 5 % of control (dose: 150.0 mg/kg/injection, schedule: Q01DX011 (ip), vehicle: other).

On to `O=[As]O`, for which the T/C is, setting by setting: (dose: 0.12 mg/kg/injection, schedule: Q01DX011 (ip), vehicle: carboxymethylcellulose (CMC)) 116 % of control; (dose: 0.25 mg/kg/injection, schedule: Q01DX011 (ip), vehicle: carboxymethylcellulose (CMC)) 86 % of control; (dose: 0.5 mg/kg/injection, schedule: Q01DX011 (ip), vehicle: carboxymethylcellulose (CMC)) 98 % of control; (dose: 1.0 mg/kg/injection, schedule: Q01DX011 (ip), vehicle: carboxymethylcellulose (CMC)) 77 % of control; (dose: 1.63 mg/kg/injection, schedule: Q01DX011 (ip), vehicle: carboxymethylcellulose (CMC)) 70 % of control; (dose: 2.0 mg/kg/injection, schedule: Q01DX011 (ip), vehicle: carboxymethylcellulose (CMC)) 19 % of control. The T/C reads like this: under setting [6], 66 % of control; (dose: 3.15 mg/kg/injection, schedule: Q01DX011 (ip), vehicle: carboxymethylcellulose (CMC)) 124 % of control; (dose: 3.25 mg/kg/injection, schedule: Q01DX011 (ip), vehicle: carboxymethylcellulose (CMC)) 72 % of control; (dose: 5.0 mg/kg/injection, schedule: Q01DX011 (ip), vehicle: carboxymethylcellulose (CMC)) 21 % of control; (dose: 5.0 mg/kg/injection, schedule: Q01DX011 (ip), vehicle: methylcellulose (MC)) 52 % of control; (dose: 6.3 mg/kg/injection, schedule: Q01DX011 (ip), vehicle: carboxymethylcellulose (CMC)) 67 % of control. Besides, the T/C (dose: 8.66 mg/kg/injection, schedule: Q01DX011 (ip), vehicle: carboxymethylcellulose (CMC)) is 63 % of control and 70 % of control; the T/C (dose: 12.6 mg/kg/injection, schedule: Q01DX011 (ip), vehicle: carboxymethylcellulose (CMC)) is 67 % of control; the T/C (dose: 13.0 mg/kg/injection, schedule: Q01DX011 (ip), vehicle: carboxymethylcellulose (CMC)) is 28 % of control and 35 % of control.

Regarding `Cc1ccccc1-c1nc2c(N)nc(N)nc2nc1N`, the T/C (dose: 50.5 mg/kg/injection, schedule: Q01DX011 (ip), vehicle: carboxymethylcellulose (CMC)) was 83 % of control; the T/C (dose: 57.0 mg/kg/injection, schedule: Q01DX011 (ip), vehicle: methylcellulose (MC)) is 54 % of control and 75 % of control; the T/C (dose: 101.0 mg/kg/injection, schedule: Q01DX011 (ip), vehicle: carboxymethylcellulose (CMC)) is 75 % of control; the T/C (dose: 113.0 mg/kg/injection, schedule: Q01DX011 (ip), vehicle: methylcellulose (MC)) is 48 % of control and 52 % of control; the T/C (dose: 202.0 mg/kg/injection, schedule: Q01DX011 (ip), vehicle: carboxymethylcellulose (CMC)) is 68 % of control; the T/C (dose: 225.0 mg/kg/injection, schedule: Q01DX011 (ip), vehicle: methylcellulose (MC)) is 82 % of control.

In the case of `COc1ccc2c(c1)/C(=C/CCN(C)C)c1ccccc1S2`, the T/C was 87 % of control (dose: 1.0 mg/kg/injection, schedule: Q01DX011 (ip), vehicle: methylcellulose (MC)); 87 % of control under setting [6]; 27 % of control (dose: 3.0 mg/kg/injection, schedule: Q01DX011 (ip), vehicle: methylcellulose (MC)); 93 % of control (dose: 4.0 mg/kg/injection, schedule: Q01DX011 (ip), vehicle: carboxymethylcellulose (CMC)); 29 % of control (dose: 7.0 mg/kg/injection, schedule: Q01DX011 (ip), vehicle: carboxymethylcellulose (CMC)); 42 % of control (dose: 7.0 mg/kg/injection, schedule: Q01DX011 (ip), vehicle: methylcellulose (MC)). Also, the T/C by setting is: (dose: 15.0 mg/kg/injection, schedule: Q01DX011 (ip), vehicle: carboxymethylcellulose (CMC)) 67 % of control; (dose: 15.0 mg/kg/injection, schedule: Q01DX011 (ip), vehicle: methylcellulose (MC)) 39 % of control; under setting [4], 47 % of control.

Regarding `CCCNc1ncnc2c1cnn2C1CCCO1` (centres undefined), the T/C was 75 % of control (dose: 1.5 mg/kg/injection, schedule: Q01DX011 (ip), vehicle: methylcellulose (MC)); 66 % of control (dose: 3.1 mg/kg/injection, schedule: Q01DX011 (ip), vehicle: methylcellulose (MC)); 27 % of control under setting [5]; 3 % of control and 4 % of control under setting [1].

The T/C is the ratio of treated to control.

For the origin of these results see PubChem BioAssay AID180 (DTP/NCI, 2004).
